Values belong to the compound of their own block, whether it stands above or below them.
Legend:
[1] = Inhibition of alpha glucosidase by UV-[…] spectroscopy
[2] = target: Acetylcholinesterase (Electrophorus electricus, UniProt O42275); experiment: Inhibition of electric eel AChE using acetylthiocholine chloride as substrate after 15 mins by Ellman's method
Acetylcholinesterase, sequence (O42275 whole entry): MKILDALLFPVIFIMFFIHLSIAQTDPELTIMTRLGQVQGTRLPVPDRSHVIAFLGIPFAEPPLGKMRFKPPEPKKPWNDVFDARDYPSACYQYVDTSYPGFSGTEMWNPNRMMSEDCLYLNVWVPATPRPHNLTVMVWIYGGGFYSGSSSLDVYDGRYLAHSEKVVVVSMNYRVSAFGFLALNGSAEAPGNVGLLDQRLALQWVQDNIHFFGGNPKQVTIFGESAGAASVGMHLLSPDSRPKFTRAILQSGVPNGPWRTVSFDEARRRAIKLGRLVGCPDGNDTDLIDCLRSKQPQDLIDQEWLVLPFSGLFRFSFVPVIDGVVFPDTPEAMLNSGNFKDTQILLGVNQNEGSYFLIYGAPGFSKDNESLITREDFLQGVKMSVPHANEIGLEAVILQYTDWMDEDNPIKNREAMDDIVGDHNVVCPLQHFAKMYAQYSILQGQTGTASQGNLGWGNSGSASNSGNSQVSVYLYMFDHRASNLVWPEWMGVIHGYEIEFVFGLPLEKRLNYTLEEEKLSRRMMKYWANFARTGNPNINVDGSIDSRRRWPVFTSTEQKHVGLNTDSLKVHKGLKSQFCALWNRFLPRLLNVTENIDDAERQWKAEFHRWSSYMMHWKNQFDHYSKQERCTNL

SMILES: COc1c(-c2ccc(O)cc2)cc(O)c(-c2ccc(O)cc2)c1O
- IC50 [1]: 0.9 µM
- IC50 [2]: > 100 µM

SMILES: COc1c(-c2ccc(O)cc2)cc(O)c(-c2ccc(O)c(O)c2)c1O
- IC50 [1]: 4.9 µM
- IC50 [2]: > 100 µM

SMILES: COc1c(-c2ccc(O)cc2)cc(O)c2c1oc1cc(O)c(O)cc12
- IC50 [1]: > 100 µM
- IC50 [2]: 7.8 µM

SMILES: COc1c(-c2ccc(O)c(O)c2)cc(O)c(-c2ccc(O)c(O)c2)c1O
- IC50 [1]: 2.9 µM
- IC50 [2]: > 100 µM

SMILES: COc1c(-c2ccc(O)c(O)c2)cc(O)c2c1oc1cc(O)c(O)cc12 [6'-DESMETHYLCANDIDUSIN B]
- IC50 [1]: > 100 µM
- IC50 [2]: 5.2 µM

SMILES: CC[C@H](C)C(=O)C[C@H]1C2=COC(C)=CC2=CC(=O)[C@]1(C)O [CHERMESINONE A]
- IC50 [1]: 24.5 µM
- IC50 [2]: > 100 µM

SMILES: CC[C@H](C)C(=O)[C@H]1C(=O)O[C@@]2(C)C(=O)C=C3C=C(C)OC=C3[C@H]12 [CHERMESINONE B]
- IC50 [1]: > 100 µM
- IC50 [2]: > 100 µM

SMILES: CC[C@H](C)C(=O)[C@H]1C(=O)O[C@@]2(C)C(=O)C=C3C=C(C)O[C@H](O)[C@H]3[C@H]12 [CHERMESINONE C]
- IC50 [1]: > 100 µM
- IC50 [2]: > 100 µM

- IC50 [1]: 9.8 µM
SMILES: O=c1c(-c2ccc(O)cc2)coc2cc(O)cc(O)c12 [GENISTEIN]

Reference: ChEMBL document CHEMBL1800006, “Azaphilones and p-terphenyls from the mangrove endophytic fungus Penicillium chermesinum (ZH4-E2) isolated from the South China Sea” (J Nat Prod, 2011)
